Results as given in ChEMBL document CHEMBL5154881, “Discovery of First-in-Class TAK1-MKK3 Protein-Protein Interaction (PPI) Inhibitor (R)-STU104 for the Treatment of Ulcerative Colitis through Modulating TNF-α Production” (J Med Chem, 2022).
Active and inactive are the calls of the source. No cut-off for these calls is given here.

What was measured:
[1] = Metabolic stability in mouse liver microsomes assessed as intrinsic clearance; type: ADME, Microsome
Mus musculus [2] = assay: Anti-ulcerative colitis activity in DSS-induced C57BL/6 mouse ulcerative colitis model assessed as colon length recovery ratio at 1 mg/kg, IG via gavage measured after 7 days relative to control; type: functional; conditions: time 7 day
Mus musculus [3] = assay: Antiinflammatory activity against DSS-induced C57BL/6 mouse model of acute ulcerative colitis assessed as inhibition ratio of TNF-alpha protein expression at 3 mg/kg, IG via gavage measured after 7 days by ELISA relative to control; type: functional; set-up: scale not given: the % may be the effect or the level left; conditions: time 7 day
Mus musculus [4] = assay: Antiinflammatory activity against DSS-induced C57BL/6 mouse model of acute ulcerative colitis assessed as inhibition ratio of TNF-alpha protein expression at 10 mg/kg, IG via gavage measured after 7 days by ELISA relative to control; type: functional; set-up: scale not given: the % may be the effect or the level left; conditions: time 7 day
Mus musculus [5] = assay: Antiinflammatory activity against DSS-induced C57BL/6 mouse model of acute ulcerative colitis assessed as inhibition ratio of IL-1beta protein expression at 10 mg/kg, IG via gavage measured after 7 days by ELISA relative to control; type: functional; set-up: scale not given: the % may be the effect or the level left; conditions: time 7 day
Mus musculus [6] = assay: Antiinflammatory activity against DSS-induced C57BL/6 mouse model of acute ulcerative colitis assessed as inhibition of TNF-alpha mRNA expression in colon tissue administered intragastrically via gavage measured after 7 days by RT-qPCR analysis; type: functional, organism-based; conditions: route ig, time 7.0 day, DDE = dose-dependent effect
Mus musculus [7] = assay: Antiinflammatory activity against DSS-induced C57BL/6 mouse model of acute ulcerative colitis assessed as inhibition ratio of TNF-alpha mRNA expression in colon tissue at 10 mg/kg, IG via gavage measured after 7 days by RT-qPCR analysis relative to control; type: functional; set-up: scale not given: the % may be the effect or the level left; conditions: time 7 day
Mus musculus [8] = assay: Anti-ulcerative colitis activity in IL-10-/- C57BL/6 mouse model of ulcerative colitis assessed as histopathological score recovery ratio at 1 mg/kg, IG via gavage for 8 weeks relative to control; type: functional
Mus musculus [9] = assay: Antiinflammatory activity against IL-10-/- C57BL/6 mouse model of ulcerative colitis assessed as inhibition ratio of IL-1beta protein expression at 1 mg/kg, IG via gavage and measured after 8 weeks by ELISA relative to control; type: functional; set-up: scale not given: the % may be the effect or the level left
Mus musculus [10] = assay: Antiinflammatory activity against IL-10-/- C57BL/6 mouse model of ulcerative colitis assessed as inhibition ratio of IL-1beta protein expression at 10 mg/kg, IG via gavage and measured after 8 weeks by ELISA relative to control; type: functional; set-up: scale not given: the % may be the effect or the level left
Mus musculus [11] = assay: Antiinflammatory activity against IL-10-/- C57BL/6 mouse model of ulcerative colitis assessed as inhibition ratio of IL-23 protein expression at 1 mg/kg, IG via gavage and measured after 8 weeks by ELISA relative to control; type: functional; set-up: scale not given: the % may be the effect or the level left
Mus musculus [12] = assay: Antiinflammatory activity against IL-10-/- C57BL/6 mouse model of ulcerative colitis assessed as inhibition ratio of TNF-alpha mRNA expression in colon tissue at 10 mg/kg, IG via gavage and measured after 8 weeks by RT-qPCR analysis relative to control; type: functional; set-up: scale not given: the % may be the effect or the level left
Mus musculus [13] = assay: Antiinflammatory activity against IL-10-/- C57BL/6 mouse model of ulcerative colitis assessed as inhibition ratio of IL-1beta mRNA expression in colon tissue at 10 mg/kg, IG via gavage and measured after 8 weeks by RT-qPCR analysis relative to control; type: functional; set-up: scale not given: the % may be the effect or the level left
RAW264.7 [14] = assay: Inhibition of MKK3-p38-elF4E signaling pathway in mouse RAW264.7 cells assessed as inhibition of LPS-induced p38 phosphorylation treated for 1.5 hrs followed by LPS treatment for 1 hr by Western blot analysis; type: cell-based; conditions: dose 3.125-12.5 µmol/L, time 2.5 hrs, DDE = dose-dependent effect
RAW264.7 [15] = assay: Inhibition of MKK3-p38-elF4E signaling pathway in mouse RAW264.7 cells assessed as reduction in LPS-induced Mnk1 phosphorylation treated for 1.5 hrs followed by LPS treatment for 1 hr by Western blot analysis; type: cell-based; conditions: dose 3.125-12.5 µmol/L, time 2.5 hrs, DDE = dose-dependent effect
Mus musculus [16] = assay: Inhibition of MKK3-p38 MAPK-elF4E signaling pathway in C57BL/6 mouse model of acute ulcerative colitis assessed as decrease in DSS-induced p38 MAPK phosphorylation in colon tissue administered intragastrically via gavage measured after 7 days by Western blot analysis; conditions: dose 1-50 mg/kg, time 7.0 day, DDE = dose-dependent effect
Mus musculus [17] = assay: Inhibition of MKK3-p38 MAPK-elF4E signaling pathway in C57BL/6 mouse model of acute ulcerative colitis assessed as decrease in DSS-induced MK2 phosphorylation in colon tissue administered intragastrically via gavage measured after 7 days by Western blot analysis; conditions: dose 1-50 mg/kg, time 7.0 day, DDE = dose-dependent effect
[18] = molecular target: T1, Dual specificity mitogen-activated protein kinase kinase 3 (Mus musculus) (UniProt O09110); assay: Binding affinity to MKK3 in mouse RAW264.7 cells assessed as increase in thermal stability by measuring change in melting temperature at 6.25 uM incubated for 24 hrs by CETSA; type: cell-based
T1 sequence (whole entry): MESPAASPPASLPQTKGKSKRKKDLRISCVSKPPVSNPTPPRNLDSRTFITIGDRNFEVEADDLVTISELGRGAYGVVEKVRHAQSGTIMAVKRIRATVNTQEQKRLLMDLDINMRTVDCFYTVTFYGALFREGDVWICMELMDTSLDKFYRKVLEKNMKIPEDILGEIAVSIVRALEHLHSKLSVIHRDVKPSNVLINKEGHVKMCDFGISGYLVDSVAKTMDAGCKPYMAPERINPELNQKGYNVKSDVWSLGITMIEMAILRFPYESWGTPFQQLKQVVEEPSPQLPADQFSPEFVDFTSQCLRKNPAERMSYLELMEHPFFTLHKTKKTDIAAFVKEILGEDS

Mus musculus [19] = assay: Anti-ulcerative colitis activity against DSS-induced ulcerative colitis C57BL/6 mouse model assessed as reduction in DAI score at 3 mg/kg, IG via gavage administered for 7 days and measured everyday (reference value: 4.0); type: functional; conditions: time 7 day
Mus musculus [20] = assay: Anti-ulcerative colitis activity against DSS-induced ulcerative colitis C57BL/6 mouse model assessed as reduction in DAI score at 10 mg/kg, IG via gavage administered for 7 days and measured everyday (reference value: 4.0); type: functional; conditions: time 7 day
[21] = molecular target: T2, Dual specificity mitogen-activated protein kinase kinase 3 (Homo sapiens) (UniProt P46734); assay: Binding affinity to CM5 chip immobilized human MKK3 (20 to 347 residues) expressed in Escherichia coli BL21 (DE3) assessed as association constant, Ka by surface plasmon resonance analysis
T2 sequence (whole entry): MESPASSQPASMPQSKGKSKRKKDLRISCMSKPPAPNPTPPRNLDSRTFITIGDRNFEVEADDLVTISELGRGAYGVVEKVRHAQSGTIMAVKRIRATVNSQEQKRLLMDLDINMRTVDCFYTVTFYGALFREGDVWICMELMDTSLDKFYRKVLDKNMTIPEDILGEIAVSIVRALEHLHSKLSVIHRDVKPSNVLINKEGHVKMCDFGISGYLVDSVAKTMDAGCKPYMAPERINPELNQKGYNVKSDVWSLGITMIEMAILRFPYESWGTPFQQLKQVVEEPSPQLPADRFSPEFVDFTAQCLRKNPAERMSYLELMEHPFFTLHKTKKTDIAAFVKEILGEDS

RAW264.7 [22] = assay: Inhibition of TAK1-MKK3 protein-protein interaction in LPS-treated mouse RAW264.7 cells assessed as reduction in TAK1 levels at 3.13 to 12.5 umol/L incubated for 30 mins by immunoprecipitation method; type: cell-based; conditions: dose 3.13-12.5 µmol/L

SMILES: COc1ccc([C@H]2CC(=O)c3cc(OC)cc(OC)c32)cc1
- CLH [1]: 1730.2 mL/min/g
- Activity (Mus musculus [2]): 33.3%
- Activity (Mus musculus [3]): 55.9%
- Activity (Mus musculus [4]): 58.1%
- Activity (Mus musculus [5]): 64.4%
- Activity (Mus musculus [6]): Dde
- Activity (Mus musculus [7]): 78.5%
- Activity (Mus musculus [8]): 33%
- Activity (Mus musculus [9]): 40.1%
- Activity (Mus musculus [10]): 51.8%
- Activity (Mus musculus [11]): 39.6%
- Activity (Mus musculus [12]): 68.5%
- Activity (Mus musculus [13]): 43.8%
- inhibition (RAW264.7 [14]): Dde
- inhibition (RAW264.7 [15]): Dde
- inhibition (Mus musculus [16]): Dde
- inhibition (Mus musculus [17]): Dde
- ΔTm [18]: 2 °C
- Activity (Mus musculus [19]): 2.4
- Activity (Mus musculus [20]): 2.2
- Ka [21]: 5.08 10^4/Ms
- inhibition (RAW264.7 [22]): Active
